Data from publication PMC7345083, “Vancomycin-Lipopeptide Conjugates with High Antimicrobial Activity on Vancomycin-Resistant Enterococci” (Pharmaceuticals, 2020).

Key:
[1] = test system: E. faecium ATCC 51559 (vanA); assay type: cell-based, Enterococcus faecium; conditions: E. faecium ATCC 51559, vanA
Experimental: (§1) The minimum inhibitory concentration (MIC) was determined by microdilution following the EUCAST and CLSI guidelines via the broth microdilution assay on a 96-well plate. Substances were dissolved in saline solution (0.9%) at a concentration equimolar to 1.28 mg/mL vancomycin. With an increasing hydrophobicity, some substances had to be pre-dissolved in DMSO. The final concentration of DMSO remained below 1.5% and was compared to the DMSO control (no antimicrobial effect was observed up to the highest concentration tested (10%)). All substances were serially diluted on the 96-well plate using Mueller-Hinton-Broth II (cation adjusted). Vancomycin was always used as a control. For bacterial loading, an overnight culture of the referring strain was taken and adjusted to a turbidity corresponding to 10^8 cfu/mL. The bacterial suspension was further diluted to load a bacterial number of 10^6 cfu/mL on the 96-well plate and incubate it for 18 h at 35 ± 1 °C, as described before. MIC was defined as the lowest concentration without visible growth.

[2] = test system: human blood (red blood cells); test: Hemolysis (hemoglobin release assay); assay type: cell-based; conditions: concentrations above 100 µM, range applied 1-900 µM, 2 h, 37 °C
Experimental: Hemolytic activity was determined by the hemoglobin release assay on a 96-well plate. Fresh venal blood was collected from volunteers in anticoagulant tubes. The blood samples were centrifuged for 3 min at 2500 rpm, and afterwards, the supernatant was discarded and PBS (pH 7.4) was added. The tubes were gently inverted, and the previous step was repeated two times. Substances were serial two-fold diluted in PBS (pH 7.4) on a 96-well V-bottom plate. Triton X-100 (1% in PBS) was used as a positive control (Xpos). […] In total, 50 µL of the purified blood samples was added to all columns. After 2 h incubation at 37 °C, the 96-well plate was centrifuged at 4000 rpm for 2 min. The supernatant was transferred to a new flat-bottom 96-well plate and absorption was measured at 554 nm. The percentage of hemolysis was calculated according to the following equation:% hemolysis = 100 × (Xsample − Xblank)/(Xpos − Xblank).(1)

[3] = comparison statement of the abstract, no reference given; cited from earlier work
Source text: Multidrug-resistant bacteria represent one of the most important health care problems worldwide. While there are numerous drugs available for standard therapy, there are only a few compounds capable of serving as a last resort for severe infections. Therefore, approaches to control multidrug-resistant bacteria must be implemented. Here, a strategy of reactivating the established glycopeptide antibiotic vancomycin by structural modification with polycationic peptides and subsequent fatty acid conjugation to overcome the resistance of multidrug-resistant bacteria was followed. This study especia ...

[4] = test system: Enterococcus faecium UL602570 (vanA, clinical isolate); assay type: cell-based; conditions: E. faecium UL602570, vanA clinical isolate
Experimental: as §1

[5] = test system: human blood (red blood cells); conditions: cited from earlier work
Experimental: In order to investigate the hemolytic behavior, human blood from healthy volunteers was taken and exposed to different concentrations of selected conjugates. As a control, unmodified vancomycin, known to have non-hemolytic properties up to 12 mM [40], was used (Figure 4).

CN[C@H](CC(C)C)C(=O)N[C@H]1C(=O)N[C@@H](CC(N)=O)C(=O)N[C@H]2C(=O)N[C@H]3C(=O)N[C@H](C(=O)N[C@H](C(=O)O)c4cc(O)cc(O)c4-c4cc3ccc4O)[C@H](O)c3ccc(c(Cl)c3)Oc3cc2cc(c3O[C@@H]2O[C@H](CO)[C@@H](O)[C@H](O)[C@H]2O[C@H]2C[C@](C)(N)[C@H](O)[C@H](C)O2)Oc2ccc(cc2Cl)[C@H]1O [vancomycin]
resistant to up to (vancomycin concentration) [1]: up to 1024 mg/L | hemolytic effect at higher concentrations [2]: could neither be observed | excretion route [3]: rapidly excreted by the kidneys | resistance against vancomycin up to (concentration) [4]: up to 640 mg/L | non-hemolytic properties up to (concentration) [5]: up to 12 mM
